Data reported in patent US12509714B2, “Multiple heteroresistance to guide combination antibiotic regimens” (priority 2018, dated 2025).
Entries after “also recorded” stand apart in the source; their conditions may differ. Where two headings read alike, the source gives them in different places.

Key:
[1] = test system: pan-resistant Klebsiella pneumoniae isolate Nevada-2016; assay type: cell-based
Method: (§1) Population analysis profile. Population analysis profiles (PAPs) were conducted. Briefly, solid agar plates were made for each antibiotic at 7 concentrations containing 0, 0.125, 0.25, 0.5, 1, 2 and 4 times the breakpoint, using Mueller Hinton agar. Breakpoint concentrations for Enterobacteriaceae from CLSI (amikacin 64 ug/mL, gentamicin 16 ug/mL, tobramycin 16 ug/mL, ampicillin 32 ug/mL, aztreonam 16 ug/mL, cefazolin 32 ug/mL, cefepime 16 ug/mL, ceftazidime 16 ug/mL, meropenem 4 ug/mL, piperacillin/tazobactam 128/4 ug/mL, ciprofloxacin 1 ug/mL, fosfomycin 256 ug/mL (breakpoint for UPEC; 25 mg/L glucose-6-phosphate added to the media), tetracycline 16 ug/mL, trimethoprim/sulfamethoxazole 4/76 ug/mL), FDA (tigecycline 8 ug/mL), or EUCAST (colistin 4 ug/mL) were used. Dual PAPs were made similarly, with both drugs in each plate at the same multiple of their respective breakpoint (0, 0.125, 0.25, 0.5, 1, 2, 4 times the breakpoint). Isolates to be tested were grown up overnight in Mueller Hinton broth from a single colony isolated from a frozen stock. Serial microdilutions were plated at each concentration of antibiotic. Colonies were enumerated after overnight growth at 37° C. An isolate was classified as resistant if the number of colonies that grew at the breakpoint concentration were at least 50% of those that grew on antibiotic free plates. If an isolate was not resistant, it was classified as heteroresistant if the number of colonies that grew at 2 or 4 times the breakpoint were at least 0.0001% (1 in 10^6) of those that grew on antibiotic free plates. If isolates were neither classified as resistant or heteroresistant, they were classified as susceptible.

[2] = test system: pan-resistant Klebsiella pneumoniae isolate AR0040; assay type: cell-based; conditions: amikacin 64 μg/mL; piperacillin 256 μg/mL tazobactam 4 μg/mL
Method: (§2) Time kills. Time kills were conducted. Briefly, 10^6 CFU/mL bacteria from an overnight culture were inoculated into 2 mL MH media in culture tubes (Globe Scientific) with and without antibiotic(s). The following concentrations were used: colistin 16 μg/mL, ceftazidime 128 μg/mL, fosfomycin 256 μg/mL (+25 mg/L Glucose-6-Phosphate (G6P)), ampicillin 128 μg/mL (FIG. 1e-h and Supplementary FIG. 2), fosfomycin 256 μg/mL (+25 mg/L G6P), trimethoprim 4 μg/mL sulfamethoxazole 76 μg/mL, amikacin 64 μg/mL, and piperacillin 256 μg/mL tazobactam 4 μg/mL (FIGS. 5C, D, G, H). Cultures were incubated at 37° C. shaking at 250 RPM for 1-48 hours. CFU were determined by serial diluting bacteria in PBS prior to plating on MH agar plates at various timepoints in the assay (0, 1, 2, 4, 6, 8, 10, 24, and 48 hour timepoints were used for time-kills). In FIG. 1E-H, serially diluted bacteria were also plated on MH agar plates with antibiotic added (colistin 16 μg/mL, ceftazidime128 μg/mL, fosfomycin 256 μg/mL(+25 mg/L G6P), and ampicillin 128 μg/mL). In FIGS. 5D, H culture tubes were imaged with a Canon EOS Rebel T3i.

[3] = test system: Enterobacter cloacae isolate Mu208; assay type: cell-based; conditions: for resistance status of Mu208 by PAP: Mueller Hinton agar, 0-4 times the breakpoint
Method: as §1

[4] = test system: Enterobacter cloacae isolate Mu208; assay type: cell-based; conditions: for initial reduction in bacterial levels: ceftazidime 128, ampicillin 128 μg/mL
Method: as §2

[5] = test system: Enterobacter cloacae isolate Mu208; test: Frequency of resistant subpopulations of Mu208 on antibiotic treatment and after subculture without antibiotic; assay type: cell-based; conditions: for frequency of the respective resistant subpopulation on treatment: in the presence of the antibiotic; for frequency of resistant subpopulation upon subculture in the absence of antibiotic: antibiotic-free subculture
[6] = test system: carbapenem-resistant Enterobacteriaceae (CRE) clinical isolates; test: PAP screen of 104 CRE clinical isolates for heteroresistance to 16 antibiotics; assay type: cell-based; conditions: 104 CRE isolates
Method: as §1, with “If an isolate was not resistant, it was classified as heteroresistant if the number of colonies that grew at 2 or 4 times the breakpoint were at least 0.0001% (1 in 10^6) of those that grew on antibiotic free plates. If isolates were neither classified as resistant or heteroresistant, they were classified as susceptible.” left out

[7] = test system: Mu1176; test: Control isolate Mu1176, resistance designation; assay type: cell-based
Excerpt: (§3) Bacterial isolates. Enterobacter cloacae isolate Mu208 was isolated from a urine sample at an Atlanta area hospital. […] Carbapenem-resistant Enterobacteriaceae (CRE) were collected between 2013 and 2015 by the Georgia EIP MuGSI. The CDC for provided pan-resistant Klebsiella pneumoniae isolates AR0040 and Nevada-2016.

[8] = test system: Mu661; test: Control isolate Mu661, resistance designation; assay type: cell-based
Excerpt: as §3

[9] = test system: Mu712
Excerpt: as §3

[10] = test system: pan-resistant Klebsiella pneumoniae isolate Nevada-2016; assay type: cell-based; conditions: breakpoint concentration
Method: as §2

[11] = test system: Mu819; test: Susceptible control isolate Mu819 (designation, PAP, time kill); assay type: cell-based
Method: as §3, §1
as §2, with “Cultures were incubated at 37° C. shaking at 250 RPM for 1-48 hours.” left out, “In FIG. 1E-H, serially diluted bacteria were also plated on MH agar plates with antibiotic added (colistin 16 μg/mL, ceftazidime128 μg/mL, fosfomycin 256 μg/mL(+25 mg/L G6P), and ampicillin 128 μg/mL). In FIGS. 5D, H culture tubes were imaged with a Canon EOS Rebel T3i.” left out

[12] = test system: Mu208 ΔphoQ; test: Resistant subpopulations in the Mu208 phoQ deletion mutant; assay type: cell-based, Enterobacter cloacae; conditions: compared with parental Mu208
Excerpt: Colistin heteroresistance in Enterobacter requires the two-component system histidine kinase PhoQ which we deleted from Mu208 to test whether colistin heteroresistance was linked to ceftazidime or fosfomycin heteroresistance.
Cloning and mutagenesis. Mu208 ΔphoQ was generated by lambda red recombination. Briefly, a kanamycin cassette flanked by FRT sites with homology to the regions directly upstream and downstream, respectively, of the phoQ open reading frame (ORF) was inserted into the phoQ ORF in Mu208 with pKD46-tet, prior to it being removed with a flp recombinase encoded on the temperature sensitive plasmid, PCP20.

[13] = colistin 16, ceftazidime 128, fosfomycin 256 μg/mL

Row | Molecule | resistance status of Mu208 by PAP [3] | initial reduction in bacterial levels ([4]; single antibiotic) | frequency of the respective resistant subpopulation on treatment [5] | proportion of the isolates exhibiting heteroresistance [6] [%] | resistance designation of control isolate Mu1176 [7] | activity in combination with ampicillin [3] | activity in combination with ampicillin [4] | frequency of resistant subpopulation upon subculture in the absence of antibiotic [5] | concentration at which the resistant subpopulation survived ([3]; PAP) [fold the breakpoint] | behaviour of resistant subpopulation / outgrowth in the presence of the single antibiotic [4, 13] | resistance designation of control isolate Mu819 [11] | further results
1 | NCC[C@H](O)C(=O)N[C@@H]1C[C@H](N)[C@@H](O[C@H]2O[C@H](CN)[C@@H](O)[C@H](O)[C@H]2O)[C@H](O)[C@H]1O[C@H]1O[C@H](CO)[C@@H](O)[C@H](N)[C@H]1O [amikacin] | – | – | – | – | – | – | – | – | – | – | – | resistance status of Nevada-2016 by PAP [1]: homogenous resistance; initial killing of AR0040 by single drug [2]: significant initial killing
2 | CC1(C)S[C@@H]2[C@H](NC(=O)[C@H](N)c3ccccc3)C(=O)N2[C@H]1C(=O)O [ampicillin] | homogenous resistance | did not lead to the initial reduction in bacterial levels | constant | 1.0 | resistant | – | – | – | – | – | – | killing of cells in PAP ([3]; any of the concentrations tested): lack of significant killing; resistance designation of control isolate Mu661 [8]: susceptible
3 | CC(C)(O/N=C(\C(=O)N[C@@H]1C(=O)N2C(C(=O)[O-])=C(C[n+]3ccccc3)CS[C@H]12)c1csc(N)n1)C(=O)O [ceftazidime] | heteroresistance | killing was delayed | robust increase | – | resistant | not enhanced | not enhanced | returned to the baseline levels | – | – | – | concentration at which the resistant subpopulation survived [3]: 4 fold the breakpoint; behaviour of resistant subpopulation / outgrowth in the presence of the single antibiotic [4]: rapidly increased in number; also recorded: unable to prevent subsequent outgrowth; resistance designation of control isolate Mu712 [9]: susceptible
4 | C[C@@H]1O[C@@H]1P(=O)(O)O [fosfomycin] | heteroresistance | – | robust increase | 72.1 | resistant | not enhanced | not enhanced | returned to the baseline levels | 4 | rapidly increased in number; also recorded: unable to prevent subsequent outgrowth | susceptible | killing of Nevada-2016 by single antibiotic [10]: killing of a significant proportion of the bacteria
5 | colistin | heteroresistance | – | robust increase | – | resistant | – | – | returned to the baseline levels | 4 | expanded exponentially | susceptible | MIC of resistant subpopulation relative to the susceptible cells in the population ([3]; PAP): at least 32 fold; Mu208 cells killed by a concentration below the clinical breakpoint ([3]; PAP): Roughly 4 logs; activity in combination with ampicillin ([3]; dual PAP with ampicillin): not enhanced; behaviour of resistant subpopulation / outgrowth in the presence of the single antibiotic ([4]; colistin 16, ceftazidime 128, fosfomycin 256 μg/mL, listed as Colistin): unable to prevent subsequent outgrowth; time within which the susceptible cells were killed ([4]; single antibiotic, colistin 16 μg/mL): one; activity in combination with ampicillin ([4]; time-kill with ampicillin): not enhanced; resistant subpopulation in the phoQ mutant [12]: absent; killing of representative susceptible isolate in PAP ([11]; concentration below the breakpoint, isolate not named at b160, Mu819): all the cells of a representative susceptible isolate were killed; outcome of treatment of a susceptible strain in time kill ([11]; strain not named at b162, Mu819): eradicated
